Measured values: patent publication US20190185544A1, “COMPOSITIONS AND METHODS OF MODULATING ABETA PROTEIN” (University of South Florida, priority 2016, published 2019)

How the values were obtained:
[1] = test system: CHO/APPswe cells; assay: Aβ and β-CTF in CHO/APPwt compared with CHO/APPswe cells; assay type: cell-based, Chinese hamster; settings: apoE4 0, 5, 10 μg/mL or 6KApoEp 0, 5, 10 μM, 2 h, serum-free medium
Experimental: CHO cells engineered to express human wild-type APP (CHO/APPwt) or Swedish mutant APP (CHO/APPswe) were obtained. These cells were cultured in 96 or 24 well plates at 4×10^4 or 2×10^5 cells/well, respectively, in Dulbecco's modified Eagle's medium (DMEM) with 10% fetal bovine serum, 1 mM sodium pyruvate and 100 U/mL of penicillin/streptomycin (Invitrogen, Thermo Fisher Scientific). In addition, murine N2a cells transfected with APPwt (N2a/APPwt were obtained), SH-SY5Y cells transfected with APPswe and wild-type SH-SY5Y cells (ATCC, Manassas, Va.) were cultured as previously described^42. Primary hN2TM human neurons (Neuromics, Edina, Minn.) were cultured in hN2TM human neuron culture media and primary HCN2 human neurons (ATCC) were cultured in DMEM with 4 mM L-glutamine adjusted to contain 1.5 g/L sodium bicarbonate, 4.5 g/L glucose, fetal bovine serum (10%).

[2] = test system: CHO/APPwt cells; assay: APP processing and cell surface protein expression in CHO/APPwt cells (ELISA, WB, biotinylation, flow cytometry, confocal microscopy); assay type: cell-based, Chinese hamster
Experimental: In addition, full-length APP (f-APP, short and long exp, exposure), α/β-CTF and total APP in cell lysates were analyzed by WB using anti-C-terminal APP750/70 (pC-APP, left panel, FIG. 23C) and anti-N-terminal APP antibody (6E10, right panel, FIG. 23C). Cell lysates were also biotinylated and immunoprecipitated using Neutravidin beads and intracellular proteins obtained by Neutravidin depletion (intra) and cell surface proteins obtained by Neutravidin precipitation (cell surf) were analyzed for f-APP, LDLR and LRP1 by WB using 6E10, anti-LDLR and anti-LRP1 (FIG. 23D). Band density ratios of cell surf or intra to total f-APP was determined by densitometry analysis (FIG. 23E). Cellular membrane associated full-length APP was analyzed by flow cytometry and presented as means±s.d. median FL-1-A (FIG. 23F). […] Asterisk indicates P<0.05 compared with Ctrl as determined by t test.
In addition, some of the cells were biotinylated, cell lysates were immunoprecipitated using Neutravidin beads and cell surface (cell surf) proteins obtained by Neutravidin precipitation, intracellular (intra) proteins obtained by Neutravidin depletion and total proteins were analyzed for full-length APP by WB using pC-APP (pAPP751/770) (FIG. 27B). […]

## ApoE4: human recombinant apolipoprotein E4 protein (BioVision)
[1]
  Aβ and β-CTF levels in CHO/APPwt compared with CHO/APPswe cells: enhanced Aβ and β-CTF levels much more in CHO/APPwt cells compared with CHO cells overexpressing APP with the Swedish mutation
[2]; 6KApoEp 10 μM, apoE4 10 μg/mL, 2 h
  Aβ, β-CTF and sAPPα levels: markedly increased Aβ and β-CTF levels, while reducing sAPPα levels
[2]; absence or presence of β- or γ-secretase inhibitors
  cell surface protein levels of LDLR or LRP1: did not alter cell surface protein levels of LDLR or LRP1
